Converted amounts (≈) assume the structure as drawn.
Tests used:
Rattus norvegicus [1] = experiment: Volume of distribution in steady state in Wistar rat assessed as [3-(3-Ethyl-ureido)-5-(2-methyl-pyridin-4-yl)-isoquinolin-8-ylmethyl]-carbamic Acid Methyl Ester at 0.64 mg/kg, iv administered as solution up to 24 hrs by LC-MS/MS analysis; assay type: ADME, organism-based; conditions: in vivo
[2] = Solubility of compound in water at pH 6.3; assay type: physicochemical
Rattus norvegicus [3] = experiment: AUC in Wistar rat at […], po administered as suspension up to 24 hrs by LC-MS/MS analysis; assay type: ADME, organism-based; conditions: in vivo, BLD = below limit of detection
[4] = Volume of distribution in steady state in Wistar rat at 0.64 mg/kg, iv administered as solution up to 24 hrs by LC-MS/MS analysis; assay type: ADME, organism-based; conditions: in vivo, read-out: Vdss
[5] = Half life in rat blood at 1 uM by LC-MS/MS analysis; assay type: ADME, tissue-based
[6] = Half life in human blood at 1 uM by LC-MS/MS analysis; assay type: ADME, tissue-based
Staphylococcus aureus [7] = experiment: Antibacterial activity against methicillin-sensitive Staphylococcus aureus A-1178 infected in neutropenic mouse assessed as change in bacterial burden in thighs at […], iv administered every 2.75 hrs for 2 times measured 6.5 hrs post infection; assay type: functional
[8] = Stability of the compound at room temperature for weeks; assay type: physicochemical
Rattus norvegicus [9] = experiment: Tmax in Wistar rat assessed as [3-(3-Ethyl-ureido)-5-(2-methyl-pyridin-4-yl)-isoquinolin-8-ylmethyl]-carbamic Acid Methyl Ester at […], po administered as suspension up to 24 hrs by LC-MS/MS analysis; assay type: ADME, organism-based; conditions: in vivo
Rattus norvegicus [10] = experiment: Cmax in Wistar rat assessed as [3-(3-Ethyl-ureido)-5-(2-methyl-pyridin-4-yl)-isoquinolin-8-ylmethyl]-carbamic Acid Methyl Ester at […], po administered as suspension up to 24 hrs by LC-MS/MS analysis; assay type: ADME, organism-based; conditions: in vivo
Rattus norvegicus [11] = experiment: Oral bioavailability in Wistar rat assessed as [3-(3-Ethyl-ureido)-5-(2-methyl-pyridin-4-yl)-isoquinolin-8-ylmethyl]-carbamic Acid Methyl Ester at […] administered as suspension up to 24 hrs by LC-MS/MS analysis; assay type: ADME, organism-based; conditions: in vivo
[12] = Clearance in Wistar rat at 0.64 mg/kg, iv administered as solution up to 24 hrs by LC-MS/MS analysis; assay type: ADME, organism-based; conditions: in vivo
[13] = Half life in mouse blood at 1 uM by LC-MS/MS analysis; assay type: ADME, tissue-based
Rattus norvegicus [14] = experiment: AUC in Wistar rat assessed as [3-(3-Ethyl-ureido)-5-(2-methyl-pyridin-4-yl)-isoquinolin-8-ylmethyl]-carbamic Acid Methyl Ester at 0.64 mg/kg, iv administered as solution up to 24 hrs by LC-MS/MS analysis; assay type: ADME, organism-based; parameters: time < 24 hr, dose 0.64 mg/kg, route intravenous; conditions: in vivo
[15] = Half life in Wistar rat at 0.64 mg/kg, iv administered as solution up to 24 hrs by LC-MS/MS analysis; assay type: ADME, organism-based; conditions: in vivo
Staphylococcus aureus [16] = experiment: Antibacterial activity against methicillin-sensitive Staphylococcus aureus A-1178 infected in neutropenic mouse assessed as change in bacterial burden in thighs at 38.4 mg/kg, iv administered every 2.75 hrs for 2 times measured 6.5 hrs post infection; assay type: functional
[17] = AUC in Wistar rat at 0.64 mg/kg, iv administered as solution up to 24 hrs by LC-MS/MS analysis; assay type: ADME, organism-based; parameters: time < 24 hr, dose 0.64 mg/kg, route intravenous; conditions: in vivo
Rattus norvegicus [18] = experiment: Half life in Wistar rat assessed as [3-(3-Ethyl-ureido)-5-(2-methyl-pyridin-4-yl)-isoquinolin-8-ylmethyl]-carbamic Acid Methyl Ester at 0.64 mg/kg, iv administered as solution up to 24 hrs by LC-MS/MS analysis; assay type: ADME, organism-based; conditions: in vivo
Rattus norvegicus [19] = experiment: AUC in Wistar rat assessed as [3-(3-Ethyl-ureido)-5-(2-methyl-pyridin-4-yl)-isoquinolin-8-ylmethyl]-carbamic Acid Methyl Ester at […], po administered as suspension up to 24 hrs by LC-MS/MS analysis; assay type: ADME, organism-based; conditions: in vivo

CCNC(=O)Nc1cc2c(-c3cc[n+](COP(=O)([O-])O)c(C)c3)ccc(CNC(=O)OC)c2cn1
Vdss (Rattus norvegicus [1]): 1.1 L/kg | solubility [2]: 12.7 mg/mL (≈ 25.2 mM) | AUC (Rattus norvegicus [3]): Bld | Vd [4]: 0.5 L/kg | half-life at 1 µM [5]: 60 min | half-life at 1 µM [6]: 18 min | Activity (Staphylococcus aureus [7]): -3.6 deltalog10CFU | Stability [8]: Stable | Tmax (Rattus norvegicus [9]): 30 min | Cmax (Rattus norvegicus [10]): 250 ng/mL | F (Rattus norvegicus [11]): 30% | clearance [12]: 130 mL/min/kg | half-life at 1 µM [13]: 96 min | AUC (Rattus norvegicus [14]): 301 ng·h/mL | half-life [15]: 12 min | Activity (Staphylococcus aureus [16]): < -4.8 deltalog10CFU | AUC at 24 h [17]: 79 ng·h/mL | t1/2 (Rattus norvegicus [18]): 48 min | AUC (Rattus norvegicus [19]): 310 ng·h/mL
